# Data: US4816447A, “Anti-viral guanine compounds” (priority 1984, dated 1989)
# Columns and labels:
# [1] = tested on: Herpes simplex virus type 2; test: Tube dilution assay, viral cytopathology of HSV-2 in rabbit kidney cell cultures; settings: Human alphaherpesvirus 2, in Oryctolagus cuniculus, read-out: Minimum Effective Concentration
# [2] = Genotoxicity; settings: qualitative statement
# [3] = tested on: Herpes simplex virus type 1; test: Tube dilution assay, viral cytopathology of HSV-1 in rabbit kidney cell cultures; settings: Human alphaherpesvirus 1, in Oryctolagus cuniculus, read-out: Minimum Effective Concentration, Strain Schooler
# [4] = tested on: guanosine monophosphate kinase and extract of HSV1-infected HeLa cells; type: biochemical; settings: gmp kinase, 4 h
# Experimental: To the rest of the incubation mixtures were now added 0.04 units of guanosine monophosphate kinase and 20 μl of an extract of HSV1-infectedHeLa cells [The cells were infected with the virus at a multiplicity of 10 and harvested 8 hours later; they were suspended in a solution containing 0.35M KH2 PO4, pH 7.5, 0.5 mM dithiothreitol, 0.2% polyoxyethylene(9)octylphenol (Nonidet P-40), 14% glycerol at 50 mg/ml and after 30 minutes at 4° were centrifuged at […]; the supernatant liquid was the crude extract.] Incubation was continued at 30° for 4 more hours, after which samples were analyzed by HPLC and the amount of the triphosphate derivatives of each compound determined by integration of the area under the respective chromatographic peak.
# [5] = tested on: Herpes simplex virus type I (HSV-1), strain Schooler; test: Treatment of Herpes simplex virus infection in mice, repeat experiment (Table III); type: in vivo, HSV-1; ICR/Ha mice; settings: for Percent Survival: at 15 days
# Experimental: Twenty gram ICR/Ha mice were injected intraperitoneally (ip) with 0.5 ml of a 10^-5 dilution of a stock preparation of Herpes simplex virus type I (HSV-1), strain Schooler. This virus challenge infected each animal with approximately 100 LD50. […] The placebo group was composed of 45 animals. All compounds were solubilized in physiological saline, pH 11.5.
# [6] = Comparative solubilities in pH 7.2 buffer at 25°; type: physicochemical; settings: aqueous buffer; pH 7.2 phosphate buffer, 25°
# Experimental: Comparative Solubilities in pH 7.2 Buffer at 25°
# Solubilities were determined by suspending an excess amount of the compound in approximately 0.15 molar phosphate buffer (pH 7.2) and shaking overnight in a water bath at 25° to give a saturated solution. The concentration of the compound in the filtered solution was calculated on the basis of spectrophotometric measurements, i.e. comparison of the ultraviolet absorbance at the λmax for the saturated solution with the absorbance value observed for a known concentration of the compound.
# [7] = tested on: Herpes simplex virus type I (HSV-1), strain Schooler; test: Treatment of Herpes simplex virus infection in mice, intraperitoneal HSV-1, subcutaneous treatment (Table II); type: in vivo, HSV-1; ICR/Ha mice; settings: for Percent Survival: at 15 days
# [8] = biological target: T1, guanosine monophosphate kinase from hog brain (Sus scrofa, UniProt P31006); test: Kinetic parameters with purified guanosine monophosphate kinase; type: biochemical; settings: for Vmax: 25°, pH 7.6
# T1 sequence (P31006 1-198): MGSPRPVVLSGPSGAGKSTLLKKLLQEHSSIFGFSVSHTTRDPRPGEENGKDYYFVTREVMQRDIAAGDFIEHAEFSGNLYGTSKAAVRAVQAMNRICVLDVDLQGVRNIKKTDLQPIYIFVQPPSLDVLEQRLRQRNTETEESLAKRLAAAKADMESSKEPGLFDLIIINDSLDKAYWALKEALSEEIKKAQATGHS
# [9] = tested on: mycoplasmal growth; test: Inhibition of mycoplasmal growth in chickens; type: in vivo; settings: systemic, 875 μg/bird
# [10] = tested on: Recombinant 6-30; test: Drug sensitivity of HSV-1/HSV-2 intertypic Recombinant 6-30; settings: Recombinant 6-30
# [11] = tested on: Recombinant 6-34; test: Drug sensitivity of HSV-1/HSV-2 intertypic Recombinant 6-34; settings: Recombinant 6-34
# [12] = tested on: HSV-1 PAA ®1; settings: HSV-1 PAA R1
# [13] = tested on: Recombinant 6-26; test: Drug sensitivity of HSV-1/HSV-2 intertypic Recombinant 6-26; settings: Recombinant 6-26
# [14] = tested on: HSV-1 wild type Strain 17; test: Drug sensitivity of HSV-1 wild type Strain 17; settings: HSV-1 wild type Strain 17
# [15] = tested on: Recombinant 6-19; test: Drug sensitivity of HSV-1/HSV-2 intertypic Recombinant 6-19; settings: Recombinant 6-19
# [16] = tested on: HSV-2 TS6
smiles,measurement,setting,value
"Nc1nc2c(ncn2COCC(O)CO)c(=O)[nH]1 (stereo not drawn) [Compound of Formula I, 9-(2,3-Dihydroxy-1-propoxymethyl)guanine]",minimal effective concentration,[1],3 to 6 µg/mL
same,genotoxicity,[2],lack of genotoxicity
same,minimal effective concentration,[3],1 to 3 µg/mL
same,converted to the triphosphate,[4],55%
same,Avg. Survival Time,[5]; 3.1 mg/kg/day s.c.,7.2 days
same,Percent Survival,[5]; 3.1 mg/kg/day s.c.,6%
same,Avg. Survival Time,[5]; 12.5 mg/kg/day s.c.,9.8 days
same,Percent Survival,[5]; 12.5 mg/kg/day s.c.,33%
same,Avg. Survival Time,[5]; 50 mg/kg/day s.c.,10.5 days
same,Percent Survival,[5]; 50 mg/kg/day s.c.,36%
same,calculated average relative potency to acycloguanosine (95% CI),[5]; combined results of both mouse experiments,9.2
same,solubility,[6],3600 µg/mL
same,Avg. Survival Time,[7]; 3.1 mg/kg/day s.c.,6.3 days
same,Percent Survival,[7]; 3.1 mg/kg/day s.c.,0%
same,Avg. Survival Time,[7]; 12.5 mg/kg/day s.c.,9.0 days
same,Percent Survival,[7]; 12.5 mg/kg/day s.c.,26%
same,Avg. Survival Time,[7]; 50 mg/kg/day s.c.,11.8 days
same,Percent Survival,[7]; 50 mg/kg/day s.c.,60%
Nc1nc2c(ncn2COC(CO)COP(=O)(O)O)c(=O)[nH]1 (stereo not drawn) [Compound of Formula II Monophosphate],relative efficiency as substrate (Vmax /Km) vs acycloguanosine monophosphate,[8],492 to 1
same,Vmax,[8],7.1 µg/min/mg
"Nc1nc2c(ncn2[C@H]2C[C@H](O)[C@@H](COP(=O)(O)O)O2)c(=O)[nH]1 [Deoxyguanosine monophosphate, deoxyguanosine monophosphate, reference compound]",Vmax,[8],17.2 µg/min/mg
"CCCCCCCC(=O)OCC(COC(=O)CCCCCCC)OCn1cnc2c(=O)[nH]c(N)nc21 [Example 11, 9-(1,3-Dioctanoyloxy-2-propoxymethyl)guanine]",inhibition of mycoplasmal growth,[9],75%
"O=C(O)CP(=O)(O)O [PAA, phosphonoacetic acid, reference compound]",Sensitivity (S) or Resistance (R),[10],S
same,Sensitivity (S) or Resistance (R),[11],R
same,Sensitivity (S) or Resistance (R),[12],R
same,Sensitivity (S) or Resistance (R),[13],S
same,Sensitivity (S) or Resistance (R),[14],S
same,Sensitivity (S) or Resistance (R),[15],R
same,Sensitivity (S) or Resistance (R),[16]; HSV-2 TS6,S
same,sensitivity of HSV-2 Ts6,[16]; HSV-2 Ts6,sensitive
